Results: patent publication US9315544B2, “Method of treating eosinophilia by administering an immunomodulating peptide” (National Tsing Hua University, priority 2012, dated 2016)

How the values were obtained:
[1] = test system: inflammatory cell recruitment into the airways; test: Differential cell counts in bronchoalveolar lavage fluid (BALF); type: in vivo, BALB/c mouse
Description: FIG. 4 illustrates experimental design. All groups except control group were immunized with mite crude extract allergen on days 1 and 8, then mite crude extract allergen intratracheally on day 15 in all mite treated group, BALB/c mouse were divided into six groups (1) control group (PBS), (2) mites delivered intratracheally (mIT, mite on day 15) alone, (3) CMP intranasal (eIN, CMP on days 1 to 22) alone, (4) preventive-treatment group (eIN+mIT, CMP on days 1 to 14, mite on day 15) (5) therapy-treatment group (mIT+eIN, mite on day 15, CMP on days 15 to 22), and (6) preventive- and therapeutic-treatment group (eIN+mIT+eIN, CMP on days 1 to 22, mite on day 15).
FIG. 7 illustrates inhibitory effect of CMP on cell response in bronchoalveolar lavage fluid (BALF). BALF were collected from all experimental groups of mice. Cell populations were identified on air-dried cytocentrifuged smears after staining with Diff-Quuick stain. Differential cell counts were performed on a minimum of 300 cells to identify macrophages, eosinophils, segment or lymphocytes. Data represent one of three independent experiments. Each result was expressed as the mean±S.D., n=4. ***, P<0.001.
Mice were divided into six groups: 1) control (n=10), 2) mite crude extract allergen delivered intratracheally (mIT) alone (n=10), 3) CMP intranasal (eIN) alone (n=12), 4) preventive-treatment group (eIN+mIT; n=12), 5) therapeutic-treatment group (mIT+eIN; n=12), and 6) preventive- and therapeutic-treatment group (eIN+mIT+eIN; n=18) (FIG. 4). All groups receiving mIT were immunized with mite crude extract allergen on days 1 and 8 and then given mite crude extract allergen intratracheally on day 15. The cIN and eIN+mIT+eIN groups received cIN from days 1 to 22, the cIN+mIT group received eIN from days 1 to 15 (before mIT), and the mIT+eIN group received eIN from days 15 (post-mIT) to 22. All mice were sacrificed on day 23. The animal use protocol was reviewed and approved by Institutional Animal Care and Use Committee (IACUC Approval No: La-95279).
The trachea was exposed and cannulated. Two washings, each consisting of 1.0 ml of phosphate-buffered saline, were introduced into the lungs via the cannula and withdrawn to collect the cells. Bronchoalveolar lavage fluid (BALF) from each wash was placed in polypropylene tubes on ice. The collected BALF was then centrifuged at 300×g for 7 min at 4° C. […] Total cell numbers were counted on a hemocytometer, and 1−5×10^3 cells were spun onto glass microscope slides (cytospin, Shandon Scientific, Cheshire, UK). […] The number of cells recovered was calculated and expressed as absolute cell numbers.
To identify the extent of inflammatory cell recruitment into the airways under allergen challenge circumstance, the amount of inflammatory cell were measured in BALF. […]

[2] = test system: human lung cancer A549; test: Transwell migration assay, A549; type: cell-based; settings: 5 μM CMP pretreatment 30 min, 18 hours
Description: (§1) FIG. 10 illustrates Tumor migration inhibition by CMP. A549, H460 and mouse colon cancer cells were incubated with CMP at 37° C. for 30 min before adding to the top chamber of transwell membranes in 24-well dishes at a density of 2×10^4 cells/well. Data represented the mean±S.E. of triplicate samples from a representative experiment. The experiment was repeated at least three times with similar results
(§2) Cancer cell inhibition by CMP was performed in a 24-well Transwell chamber consisting of a cell culture insert (6.4 mm diameter, 8-1 μm pore polyethylene tetraphtalate membrane, [Becton Dickinson]) set in each well of a 24-well companion plate (Becton Dickinson). Briefly, 3×10^4 cancer cells were suspended and pretreated with 5 and 12.5 μM CMP for 30 min in a total volume of 200 μL. Cell suspensions were inoculated into the upper chamber of an insert, 5% fetal bovine serum (FBS) in medium as a chemoattractant was added to the plate well in the bottom chamber, and incubated for 18 hours in a humidified incubator at 37° C. with 5% CO2. The non-migratory cells on the upper membrane surface were removed with a cotton swab, and the migratory cells attached to the lower membrane surface were fixed with 4% paraformaldehyde and stained with 0.2% crystal violet. The number of migrated cells was counted in four randomly selected high power fields under microscope. […]

[3] = test system: mouse colon cancer cells; test: Transwell migration assay, mouse colon cancer cells; type: cell-based; settings: 5 μM CMP pretreatment 30 min, 18 hours
Description: as §1, §2

Sequence: NYRWRCKNQN (CMP)
- eosinophil count in BALF compared with mIT group ([1]; eIN+mIT group): lower
- eosinophil count in BALF compared with mIT group ([1]; eIN+mIT+eIN group): lower
- lymphocyte count in BALF compared with mIT group ([1]; eIN+mIT+eIN group): lower
- macrophage count in BALF compared with mIT group ([1]; eIN+mIT+eIN group): lower
- decrease of migration activity [2]: 60%
- decrease of migration activity [3]: 60%
